From publication PMC9695592, “Phenotypic Evaluation of Nucleoside Analogues against Trypanosoma cruzi Infection: In Vitro and In Vivo Approaches” (Molecules, 2022)
Like-named read-outs stand apart in the source and are kept apart here.

Experiments:
L929 cells = test: Toxicity on L929 cells (AlamarBlue); format: cell-based; settings: Mus musculus, L929, 168 h; seven days of compound incubation; 95% confidence interval in brackets
From the text: L929 cell lines were used to evaluate the effect of the nucleoside derivatives on the cellular viability of mammalian host cells and to assess their activity against intracellular forms of T. cruzi (Tulahuen strain expressing E. coli β-galactosidase gene, DTU VI) as reported. 2D and 3D culture systems of rat cardiomyoblast cell lines (H9C2(2-1)) were used to evaluate cardiotoxicity and to test the derivatives’ activity on intracellular forms (Y strain, DTU II). In all assays, the cell cultures were maintained at 37 °C under an atmosphere of 5% CO2.
L929 cells seeded in sterile 96-well microtiter plates were exposed or not to increasing concentrations (up to 200 µM) of the compounds. After seven days of incubation, the cell growth of treated cultures was compared to untreated control cells (100% cell growth). Cellular viability was assessed through AlamarBlue® (resazurin sodium salt) colorimetric assay, and the results were expressed as % reduction in cell growth/viability compared to untreated control, and an IC50 value determined. For the assays using H9C2 cultures, 25 × 10^3 cells/well were seeded in a 96-well microtiter plates (flat and U bottoms, precoated with agarose 1% for preparing 2- and 3D matrices, respectively) and maintained at 37 °C [48, 54].

[1] = system: promastigotes of Cas9^ΔNT1; test: Resazurin-based assay on Cas9^ΔNT1 promastigotes; format: cell-based, Leishmania mexicana
Experimental: Bloodstream trypomastigotes of the Y strain (DTU II) were obtained by cardiac puncture of infected Swiss Webster mice on the parasitemia peak to perform drug sensitivity assays. Trypomastigote forms of the Tulahuen-β gal strain were collected from the supernatant of previously infected L929 cell cultures (host/parasite cell ratio 10:1). The intracellular forms T. cruzi were studied by the infection of L929 and H9C2 (2D and 3D) cell cultures infected for 48 and 24 h with trypomastigotes of Tulahuen-β gal and Y strains, respectively. The Leishmania mexicana-Cas9 T7 strain (LmexCas9) was derived from L. mexicana WT promastigotes by expression of the Streptococcus pyogenes Cas9 nuclease gene ‘Cas9′ and maintained on 32 μg/mL hygromycin [51]. This strain and the derived strains Cas9^ΔNT1 and Cas9^ΔNT1+TcrNT2 were cultured in HOMEM medium supplemented with 10% of FBS and 1% Penicillin-Streptomycin antibiotic in unvented flasks at 25 °C [52]. The Cas9^ΔNT1 strain is identical to Cas9 except that the LmexNT1.1/NT1.2 locus encoding the L. mexicana adenosine/ pyrimidine transporters was excised using Cas9 [17, 40]. Cas9^ΔNT1+TcrNT2 is the further modification of that strain by the expression of the T. cruzi nucleoside transporter 2 (TcrNT2) gene in it, using the vector pNUS-HcN [53]. Appropriate antibiotics were added for the selection and maintenance of transfectants.
The EC50 values for nucleoside analogues against Leishmania mexicana promastigotes of the Cas9, Cas9^ΔNT1 and Cas9^ΔNT1+TcrNT2 strains used a resazurin-based assay, as described. Briefly, the assays were performed in standard HOMEM medium and culture conditions, in white opaque 96-well plates. For each test compound (stored as a 40 mM stock solution in 100% DMSO at −20 °C), a doubling dilution was performed over 2 rows of the plate, keeping the last well free as no-drug control with HOMEM only (23 doubling dilutions; highest concentration 100 µM). To each well, 100 µL of HOMEM containing 2 × 10^5 cells of the appropriate L. mexicana line was added, and the plates incubated for 72 h at 25 °C, followed by the addition of 20 µL of resazurin solution and further incubation for 48 h. Fluorescence was read on a FLUOstar OPTIMA plate reader (BMG Labtech, Germany), at an excitation wavelength of 544 nm and an emission wavelength of 620 nm. The EC50 values were determined by the GraphPad Prism 8.0 software using an equation for a sigmoid curve with variable slope. Pentamidine was used as positive control, and every experiment was independently performed at least 3 times independently.

[2] = Leishmania mexicana, read-out: Cas9^ΔNT1 EC50 (μM), promastigotes, resazurin-based assay, highest concentration 100 µM

SMILES | IC50 (L929 cells) [µM] | EC50 [1, 2] [µM] | EC50 ([1]; read-out: Cas9^ΔNT1 EC50, promastigotes, resazurin-based assay, highest concentration 100 µM) [µM]
O=C(Cn1ccnc1[N+](=O)[O-])NCc1ccccc1 [Bz, Benznidazole, reference compound] | > 200 |  | 
Nc1ncnc2c1c(-c1ccc(Cl)c(Cl)c1)cn2[C@@H]1O[C@H](CO)C[C@H]1O [FH8513, 7-(3,4-dichlorophenyl)-3′-deoxytubercidin] | 22.3 | ~100 | 100.5 ± 0.9
Nc1ncnc2c1c(-c1ccc(Cl)c(F)c1)cn2[C@@H]1O[C@H](CO)[C@@H](O)[C@H]1O [FH10714, 7-(3-fluoro,4-chlorophenyl)tubercidin] | 55.8 | > 100 | 
Nc1ncnc2c1c(-c1ccc(F)c(F)c1)cn2[C@@H]1O[C@H](CO)[C@@H](O)[C@H]1O [FH11706, 7-(3,4-Difluorophenyl)tubercidin] | 118 | > 100 | 
